This is an account of results in US20160045513A1, “ISOXAZOLE COMPOUND FOR THE TREATMENT OF CANCER” (Novartis AG, priority 2007, published 2016).

One may read the IC50 as the concentration that inhibits the measured activity by half. A lower IC50 goes with higher potency.

Assay in all cases: cell proliferation, tumor derived cell lines
Common to all, as to format: cell-based

One assay has as its system A375. Particulars: Homo sapiens, A-375, Melanoma, 72 or 96 hours exposure. Here is the method: (§1) Thirty-seven cancer derived cell lines are used (BT474, MDA-MB-361, MDA-MB-453, SKBr3, T47D, MCF7, MDA-MB-231, MDA-MB-468, SK-MEL-5, A375, MALME-3M, SK-MEL-28, WM266.4, RPMI8226, U266, BE, Colo205, HCT116, HT29, MAWI, RKO, U87MG, HN5, RPMI-8226, A549, MV522, NCI-H1299, NCI-H460, 41M, A2780, CHI, NCI-N87, SKOV3, PC3, MO7e, GIST882 and Baf3) to test the effect of 5-(2,4-Dihydroxy-5-isopropyl-phenyl)-4-(4-morpholin-4-ylmethyl-phenyl)-isoxazole-3-carboxylic acid ethylamide. Cell lines are commercially available from American Type Culture Collection (ATCC). These cell lines cover the following 12 cancer or tumor types: breast, melanoma, multiple myeloma (MM), colon, glioblastoma, head & neck, leukemia, lung, ovarian, prostate, stomach and gastrointestinal stromal tumour (GIST). After division and medium change, cells from stock culture are seeded on cell plates and cultured for about 18 hours to allow cell growth and attachment before starting the assay. On the first day of the assay, 5-(2,4-Dihydroxy-5-isopropyl-phenyl)-4-(4-morpholin-4-ylmethyl-phenyl)-isoxazole-3-carboxylic acid ethylamide is added to the medium at various concentrations up to […]. Cells are cultured up to 72 or 96 hours and cell proliferation is determined using commercially available cell proliferation kits.
(§2) The cells were continually exposed to 5-(2,4-Dihydroxy-5-isopropyl-phenyl)-4-(4-morpholin-4-ylmethyl-phenyl)-isoxazole-3-carboxylic acid ethylamide for either 72 or 96 hours and cell growth was determined by commercially available kits based on either SRB, Alamar blue, methylene blue or WST-1 methods.

For another assay, the system named is BE. Particulars: Colon, 72 or 96 hours exposure. As for the experimental part: as §1, §2
The test system of a further assay is RKO. Particulars: Homo sapiens, Colon, 72 or 96 hours exposure. As for the experimental part:
as §1, §2

The test system of a further assay is RPMI8226. Conditions: Homo sapiens, RPMI-8226, Multiple myeloma (MM), 72 or 96 hours exposure. Here is the method:
as §1, §2

In a further assay the test system is U87MG. Conditions: Homo sapiens, U-87 MG, Glioblastoma, 72 or 96 hours exposure. Here is the method:
as §1, §2

On to `CCNC(=O)c1noc(-c2cc(C(C)C)c(O)cc2O)c1-c1ccc(CN2CCOCC2)cc1` [AUY922, 5-(2,4-Dihydroxy-5-isopropyl-phenyl)-4-(4-morpholin-4-ylmethyl-phenyl)-isoxazole-3-carboxylic acid ethylamide], for which the concentration for half-maximal inhibition (IC50) was determined as 3 nM in the assay with A375; 2.8 nM with BE; 3.1 nM in the assay with RKO; 36.7 nM with RPMI8226; 6 nM in the assay with U87MG.
